# Reference: patent publication US20260070945A1, “MACROCYCLIC IMMUNOMODULATORS” (Bristol-Myers Squibb Company, priority 2022, published 2026)
# *1 amine or outer side, *2 acyl side, *3 side chain or, on linkers, in order; H or OH if unused. Where a SMILES comes first, the peptide text is derived from it. Bridges are numbered along the chain shown (N, C = ends). [ ]: non-standard residue; d: D form. The star is where a group is joined. ξ: configuration not given here. Phe(4-guanidino) = N=C(N)Nc1ccc(C[C@H](N)C(=O)O)cc1; Phe(4-COOH) = N[C@@H](Cc1ccc(C(=O)O)cc1)C(=O)O; Bip = N[C@@H](Cc1ccc(-c2ccccc2)cc1)C(=O)O; Phe(3-Me) = Cc1cccc(C[C@H](N)C(=O)O)c1; NH(CH2)8CO = O=C(CCCCCCCCN[*:1])[*:2]; hArg = N=C(N)NCCCC[C@H](N)C(=O)O; 4Pal = N[C@@H](Cc1ccncc1)C(=O)O; Cha = N[C@@H](CC1CCCCC1)C(=O)O; Cit = NC(=O)NCCC[C@H](N)C(=O)O; Ile(3ξ) = CCC(C)[C@H](N)C(=O)O; Thr(3ξ) = CC(O)[C@H](N)C(=O)O; Carboxymethyl = O=C(O)C*; NMeA = CN[C@@H](C)C(=O)O; Orn = NCCC[C@H](N)C(=O)O; Aun = NCCCCCCCCCCC(=O)O; Dab = NCC[C@H](N)C(=O)O; Dap = NC[C@H](N)C(=O)O; AEEA = NCCOCCOCC(=O)O
# Target: T1, PD-1/PD-L1 interaction (PE-labeled human PD-L1-Ig binding to Jurkat cell line over-expressing human PD-1) (Homo sapiens, UniProt Q15116)
# T1 construct: expressed in transfected cells; host or cells: Jurkat
# T1 sequence (Q15116 25-288): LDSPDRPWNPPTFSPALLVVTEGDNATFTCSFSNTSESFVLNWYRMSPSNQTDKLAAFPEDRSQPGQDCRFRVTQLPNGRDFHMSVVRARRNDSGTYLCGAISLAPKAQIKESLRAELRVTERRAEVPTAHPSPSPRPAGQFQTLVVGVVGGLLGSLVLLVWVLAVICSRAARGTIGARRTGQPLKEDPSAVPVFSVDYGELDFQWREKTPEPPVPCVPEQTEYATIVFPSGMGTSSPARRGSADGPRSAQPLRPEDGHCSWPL
# Assay: Jurkat-PD-1 Cell Binding High-Content Screening Assay (CBA)
# Conditions: Jurkat-hPD-1 cells, PE-labeled PD-L1-Ig 20 nM final; read-out: Jurkat HPD1 PDL1 IC50
# How it was run: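 Jurkat cells overexpressing human PD-1 (8×10^3/well, DMEM + 10% FCS) preincubated with compound 2 h at 37 °C, then PE-labelled human PD-L1-Ig (20 nM final) for 1 h. Cells fixed in paraformaldehyde with Hoechst 33342; bound PD-L1 quantified by high-content imaging.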
row,Structure (SMILES),IC50
1,CC(C)C[C@@H]1NC(=O)[C@H](Cc2c[nH]c3ccccc23)NC(=O)[C@H](CC(=O)O)NC(=O)[C@H](Cc2ccc(C(=O)O)cc2)NC(=O)[C@H](Cc2ccc(OCC(=O)O)cc2)NC(=O)CSC[C@@H](C(=O)N[C@@H](CCN)C(=O)NCCOCCOCC(=O)NCCCCCCCCCCC(=O)O)NC(=O)[C@H](CO)NC(=O)[C@H](C(C)C)NC(=O)[C@H](CC2CCCCC2)NC(=O)[C@H](CCN)NC(=O)[C@@H](CC(C)C)NC(=O)[C@H](C)N(C)C(=O)[C@H](C(C)C)NC(=O)[C@H](Cc2ccc(-c3ccccc3)cc2)NC1=O [Example 2094] ({CH2CO}-Y(Carboxymethyl)[Phe(4-COOH)]DWL[Bip]V[NMeA][dL][Dab][Cha]VSC[Dab][AEEA][Aun]-OH; thioether N-14),9.6 nM
2,CC(C)C[C@@H]1NC(=O)[C@H](Cc2c[nH]c3ccccc23)NC(=O)[C@H](CC(=O)O)NC(=O)[C@H](Cc2ccc(C(=O)O)cc2)NC(=O)[C@H](Cc2ccc(OCC(=O)O)cc2)NC(=O)CSC[C@@H](C(=O)NCCOCCOCC(=O)N[C@@H](CCN)C(=O)NCCCCCCCCCCC(=O)O)NC(=O)[C@H](CCCCN)NC(=O)[C@H](C(C)C)NC(=O)[C@H](CC2CCCCC2)NC(=O)[C@H](CCN)NC(=O)[C@@H](CC(C)C)NC(=O)[C@H](C)N(C)C(=O)[C@H](C(C)C)NC(=O)[C@H](Cc2ccc(-c3ccccc3)cc2)NC1=O [Example 2155] ({CH2CO}-Y(Carboxymethyl)[Phe(4-COOH)]DWL[Bip]V[NMeA][dL][Dab][Cha]VKC[AEEA][Dab][Aun]-OH; thioether N-14),6.6 nM
3,Cc1cccc(C[C@@H]2NC(=O)[C@H](CC(=O)O)NC(=O)[C@H](Cc3ccc(OCC(=O)O)cc3)NC(=O)[C@H](C(C)O)NC(=O)CSC[C@@H](C(=O)N[C@H](CC(N)=O)C(=O)NCCCCCCCCCCC(=O)O)NC(=O)[C@H](C(C)O)NC(=O)[C@H](C(C)C)NC(=O)[C@H](CC3CCCCC3)NC(=O)[C@H](CCN)NC(=O)[C@@H](CC(C)C)NC(=O)[C@H](C)N(C)C(=O)[C@H](CCCNC(=N)N)NC(=O)[C@H](Cc3ccc(-c4ccccc4)cc3)NC(=O)[C@H](Cc3ccc(O)cc3)NC2=O)c1 (stereo partly drawn) [Example 2338] ({CH2CO}-[Thr(3ξ)]Y(Carboxymethyl)D[Phe(3-Me)]Y[Bip]R[NMeA][dL][Dab][Cha]V[Thr(3ξ)]C[dN][Aun]-OH; thioether N-14),5.5 nM
4,Cc1cccc(C[C@@H]2NC(=O)[C@H](CC(=O)O)NC(=O)[C@H](Cc3ccc(OCC(=O)O)cc3)NC(=O)[C@H](CN)NC(=O)CSC[C@@H](C(=O)NCC(=O)N[C@@H](CCC(=O)O)C(=O)NCCCCCCCCCCC(=O)O)NC(=O)[C@H](CO)NC(=O)[C@H](C(C)C)NC(=O)[C@H](CC(C)C)NC(=O)[C@H](CC(N)=O)NC(=O)[C@@H](CC(C)C)NC(=O)[C@H](C)N(C)C(=O)[C@H](C(C)C)NC(=O)[C@H](Cc3ccc(-c4ccccc4)cc3)NC(=O)[C@H](CC(C)C)NC2=O)c1 [Example 1060] ({CH2CO}-[Dap]Y(Carboxymethyl)D[Phe(3-Me)]L[Bip]V[NMeA][dL]NLVSCGE[Aun]-OH; thioether N-14),47.9 nM
5,CC(C)C[C@@H]1NC(=O)[C@H](Cc2c[nH]c3ccccc23)NC(=O)[C@H](CC(=O)O)NC(=O)[C@H](Cc2c[nH]cn2)NC(=O)[C@H](CCCCNC(=N)N)NC(=O)CSC[C@@H](C(=O)N[C@@H](CCN)C(=O)NCCCCCCCCCCC(=O)O)NC(=O)[C@H](CCCN)NC(=O)[C@H](C(C)C)NC(=O)[C@H](CC2CCCCC2)NC(=O)[C@H](CCN)NC(=O)[C@@H](CC(C)C)NC(=O)[C@H](C)N(C)C(=O)[C@H](C(C)C)NC(=O)[C@H](Cc2ccc(-c3ccccc3)cc2)NC1=O [Example 2195] ({CH2CO}-[hArg]HDWL[Bip]V[NMeA][dL][Dab][Cha]V[Orn]C[Dab][Aun]-OH; thioether N-14),80.3 nM
6,Cc1cccc(C[C@@H]2NC(=O)[C@H](CC(=O)O)NC(=O)[C@H](Cc3ccc(C(=O)O)cc3)NC(=O)[C@H](Cc3ccc(OCC(=O)O)cc3)NC(=O)CSC[C@@H](C(=O)NCCCCCCCCCCC(=O)O)NC(=O)[C@H](CCCNC(N)=O)NC(=O)[C@H](C(C)C)NC(=O)[C@H](CC3CCCCC3)NC(=O)[C@H](CCN)NC(=O)[C@@H](CC(C)C)NC(=O)[C@H](C)N(C)C(=O)[C@H](C(C)C)NC(=O)[C@H](Cc3ccc(-c4ccccc4)cc3)NC(=O)[C@H](C(C)C)NC2=O)c1 [Example 2216] ({CH2CO}-Y(Carboxymethyl)[Phe(4-COOH)]D[Phe(3-Me)]V[Bip]V[NMeA][dL][Dab][Cha]V[Cit]C[Aun]-OH; thioether N-14),13.9 nM
7,CCC(C)[C@@H]1NC(=O)[C@H](Cc2ccc(-c3ccccc3)cc2)NC(=O)[C@H](C(C)C)NC(=O)[C@H](Cc2c[nH]c3ccccc23)NC(=O)[C@H](CC(=O)O)NC(=O)[C@H](Cc2ccc(O)cc2)NC(=O)[C@H](Cc2ccncc2)NC(=O)CSC[C@@H](C(=O)N[C@@H](CC(N)=O)C(=O)NCCOCCOCC(=O)N[C@@H](CCCN)C(=O)NCCCCCCCCCCC(=O)O)NC(=O)[C@H](CO)NC(=O)[C@H](C(C)C)NC(=O)[C@H](CC2CCCCC2)NC(=O)[C@H](CCN)NC(=O)[C@@H](CC(C)C)NC(=O)[C@H](C)N(C)C1=O (stereo partly drawn) [Example 2078] ({CH2CO}-[4Pal]YDWV[Bip][Ile(3ξ)][NMeA][dL][Dab][Cha]VSCN[AEEA][Orn][Aun]-OH; thioether N-14),12.2 nM
8,CCC(C)[C@@H]1NC(=O)[C@H](CC(C)C)NC(=O)[C@H](CCN)NC(=O)[C@@H](CC(C)C)NC(=O)[C@H](C)N(C)C(=O)[C@H](C(C)CC)NC(=O)[C@H](Cc2ccc(-c3ccccc3)cc2)NC(=O)[C@H](C(C)CC)NC(=O)[C@H](Cc2c[nH]c3ccccc23)NC(=O)[C@H](CC(=O)O)NC(=O)[C@H](Cc2ccc(OCC(=O)O)cc2)NC(=O)[C@H](C(C)O)NC(=O)CSC[C@@H](C(=O)N[C@H](CC(N)=O)C(=O)NCCOCCOCC(=O)NCCCCCCCCCCC(=O)O)NC(=O)[C@H](CO)NC1=O (stereo partly drawn) [Example 2080] ({CH2CO}-[Thr(3ξ)]Y(Carboxymethyl)DW[Ile(3ξ)][Bip][Ile(3ξ)][NMeA][dL][Dab]L[Ile(3ξ)]SC[dN][AEEA][Aun]-OH; thioether N-14),110 nM

# Same assay, conditions: PE-labeled PD-L1-Ig 20 nM final, Jurkat-hPD-1 cells; read-out: Jurkat HPD1 PDL1 IC50
row,Structure (SMILES),IC50
1,Cc1cccc(C[C@@H]2NC(=O)[C@H](CC(=O)O)NC(=O)[C@H](Cc3ccc(NC(=N)N)cc3)NC(=O)[C@H]([C@@H](C)O)NC(=O)CSC[C@@H](C(=O)N[C@@H](CCN)C(=O)NCCCCCCCCC(=O)NCCCCCCCCCCC(=O)O)NC(=O)[C@H](CCCN)NC(=O)[C@H](C(C)C)NC(=O)[C@H](CC3CCCCC3)NC(=O)[C@H](CCN)NC(=O)[C@@H](CC(C)C)NC(=O)[C@H](C)N(C)C(=O)[C@H](Cc3ccc(NC(=N)N)cc3)NC(=O)[C@H](Cc3ccc(-c4ccccc4)cc3)NC(=O)[C@H](Cc3ccc(NC(=N)N)cc3)NC2=O)c1 [Example 2684] ({CH2CO}-T[Phe(4-guanidino)]D[Phe(3-Me)][Phe(4-guanidino)][Bip][Phe(4-guanidino)][NMeA][dL][Dab][Cha]V[Orn]C[Dab][NH(CH2)8CO][Aun]-OH; thioether N-14),4.4 nM
2,CC(=O)NCCCC[C@@H]1NC(=O)[C@H](Cc2ccc(-c3ccccc3)cc2)NC(=O)[C@H](CC(C)C)NC(=O)[C@H](Cc2c[nH]c3ccccc23)NC(=O)[C@H](CC(=O)O)NC(=O)[C@H](Cc2ccc(OCC(=O)O)cc2)NC(=O)[C@H](Cc2ccc(OCC(=O)O)cc2)NC(=O)CSC[C@@H](C(=O)NCCOCCOCC(=O)NCCCCCCCCCCC(=O)O)NC(=O)[C@H](CO)NC(=O)[C@H](C(C)C)NC(=O)[C@H](CC2CCCCC2)NC(=O)[C@H](CCN)NC(=O)[C@@H](CC(C)C)NC(=O)[C@H](C)N(C)C1=O [Example 2438] ({CH2CO}-Y(Carboxymethyl)Y(Carboxymethyl)DWL[Bip]K(Ac)[NMeA][dL][Dab][Cha]VSC[AEEA][Aun]-OH; thioether N-14),16.8 nM
